system: Rattus norvegicus; test: Inhibitory activity against plasma prolactin level in male Sprague-Dawley rats after peroral administration (5mg/Kg), activity expressed as mean duration for submaximal inhibition; format: functional; conditions: not given

SMILES | Duration
c1cc2c3c(c[nH]c3c1)C[C@H]1NCCO[C@H]21 | 3 h
CCCN1CCO[C@@H]2c3cccc4c3[C@@H](CN4)C[C@H]21 | >12 h
CCCN1CCO[C@@H]2c3cccc4[nH]cc(c34)C[C@H]21 | >22 h
CCCN1CCO[C@@H]2c3cccc4[nH]c(Br)c(c34)C[C@H]21 | >12 h
CCCN1C[C@H](CSC)C[C@@H]2c3cccc4[nH]cc(c34)C[C@H]21.CS(=O)(=O)O [PERGOLIDE MESYLATE] | >22 h

system: Rattus norvegicus; test: Inhibitory activity against plasma prolactin level in male Sprague-Dawley rats after peroral administration (5mg/Kg), activity expressed as mean duration for submaximal inhibition; Duration 3-6h; format: functional; conditions: not given

SMILES | Duration
CN1CCO[C@@H]2c3cccc4[nH]c(Br)c(c34)C[C@H]21 | 3 h

system: not listed separately; test: Lethal dose in male mice (administered ip), activity expressed as LD50 values.; format: toxicity, organism-based; conditions: mouse, in vivo

SMILES | LD50
c1cc2c3c(c[nH]c3c1)C[C@H]1NCCO[C@H]21 | 150 mg/kg
CN1CCO[C@@H]2c3cccc4[nH]c(Br)c(c34)C[C@H]21 | 35 mg/kg
CCCN1CCO[C@@H]2c3cccc4c3[C@@H](CN4)C[C@H]21 | 150 mg/kg
CCCN1CCO[C@@H]2c3cccc4[nH]cc(c34)C[C@H]21 | 150 mg/kg
CCCN1CCO[C@@H]2c3cccc4[nH]c(Br)c(c34)C[C@H]21 | > 200 mg/kg
CN1CCO[C@@H]2c3cccc4c3c(cn4C)C[C@H]21 | > 200 mg/kg
CCCN1C[C@H](CSC)C[C@@H]2c3cccc4[nH]cc(c34)C[C@H]21.CS(=O)(=O)O [PERGOLIDE MESYLATE] | 100 mg/kg

species on record: Rattus norvegicus; test: Inhibitory activity against prolactin release in rat anterior pituitary cells; format: functional, cell-based; conditions: Pituitary gland cell

SMILES | IC50
c1cc2c3c(c[nH]c3c1)C[C@H]1NCCO[C@H]21 | 300 nM
CN1CCO[C@@H]2c3cccc4[nH]c(Br)c(c34)C[C@H]21 | 100 nM
CCCN1CCO[C@@H]2c3cccc4c3[C@@H](CN4)C[C@H]21 | 0.1 nM
CN1CCO[C@@H]2c3cccc4[nH]cc(c34)C[C@H]21 | 17 nM
CCCN1CCO[C@@H]2c3cccc4[nH]cc(c34)C[C@H]21 | 0.06 nM
CCCN1CCO[C@@H]2c3cccc4[nH]c(Br)c(c34)C[C@H]21 | 0.2 nM
CN1CCO[C@@H]2c3cccc4c3c(cn4C)C[C@H]21 | > 10000 nM
CCCN1C[C@H](CSC)C[C@@H]2c3cccc4[nH]cc(c34)C[C@H]21.CS(=O)(=O)O [PERGOLIDE MESYLATE] | 0.07 nM

species on record: Rattus norvegicus; test: Minimum effective dose required to decrease striatal DA turnover in rats; format: functional; conditions: read-out: MED

SMILES | minimal effective dose
c1cc2c3c(c[nH]c3c1)C[C@H]1NCCO[C@H]21 | 1 mg/kg
CN1CCO[C@@H]2c3cccc4[nH]c(Br)c(c34)C[C@H]21 | 1 mg/kg
CCCN1CCO[C@@H]2c3cccc4c3[C@@H](CN4)C[C@H]21 | 0.1 mg/kg
CN1CCO[C@@H]2c3cccc4[nH]cc(c34)C[C@H]21 | 0.1 mg/kg
CCCN1CCO[C@@H]2c3cccc4[nH]cc(c34)C[C@H]21 | 0.05 mg/kg
CCCN1CCO[C@@H]2c3cccc4[nH]c(Br)c(c34)C[C@H]21 | 0.5 mg/kg
CN1CCO[C@@H]2c3cccc4c3c(cn4C)C[C@H]21 | 10 mg/kg
CCCN1C[C@H](CSC)C[C@@H]2c3cccc4[nH]cc(c34)C[C@H]21.CS(=O)(=O)O [PERGOLIDE MESYLATE] | 0.05 mg/kg

system: Canis familiaris; test: Minimum effective dose (sc) to induce emesis in male or female Beagle dogs; format: functional; conditions: Canis lupus familiaris, read-out: MED

SMILES | minimal effective dose
c1cc2c3c(c[nH]c3c1)C[C@H]1NCCO[C@H]21 | > 0.5 mg/kg
CN1CCO[C@@H]2c3cccc4[nH]c(Br)c(c34)C[C@H]21 | 0.5 mg/kg
CCCN1CCO[C@@H]2c3cccc4c3[C@@H](CN4)C[C@H]21 | 0.1 mg/kg
CN1CCO[C@@H]2c3cccc4[nH]cc(c34)C[C@H]21 | 0.1 mg/kg
CCCN1CCO[C@@H]2c3cccc4[nH]cc(c34)C[C@H]21 | 0.01 mg/kg
CCCN1CCO[C@@H]2c3cccc4[nH]c(Br)c(c34)C[C@H]21 | > 0.5 mg/kg
CN1CCO[C@@H]2c3cccc4c3c(cn4C)C[C@H]21 | 1 mg/kg
CCCN1C[C@H](CSC)C[C@@H]2c3cccc4[nH]cc(c34)C[C@H]21.CS(=O)(=O)O [PERGOLIDE MESYLATE] | 0.05 mg/kg

target: Dopamine receptor (Bos taurus, UniProt Q95136+P20288); test: In vitro binding affinity towards dopamine receptor was determined in bovine anterior pituitary membrane using [3H]dihydroergocriptine as the radioligand; format: cell membranes; conditions: not given

SMILES | IC50
c1cc2c3c(c[nH]c3c1)C[C@H]1NCCO[C@H]21 | 7000 nM
CN1CCO[C@@H]2c3cccc4[nH]c(Br)c(c34)C[C@H]21 | 3000 nM
CCCN1CCO[C@@H]2c3cccc4c3[C@@H](CN4)C[C@H]21 | 300 nM
CN1CCO[C@@H]2c3cccc4[nH]cc(c34)C[C@H]21 | 2500 nM
CCCN1CCO[C@@H]2c3cccc4[nH]cc(c34)C[C@H]21 | 40 nM
CCCN1CCO[C@@H]2c3cccc4[nH]c(Br)c(c34)C[C@H]21 | 500 nM
CN1CCO[C@@H]2c3cccc4c3c(cn4C)C[C@H]21 | 4800 nM

system: Rattus norvegicus; test: Inhibitory activity against plasma prolactin level in male Sprague-Dawley rats after peroral administration (5mg/Kg), activity expressed as mean duration for submaximal inhibition; Duration 3-4h; format: functional; conditions: not given

SMILES | Duration
CN1CCO[C@@H]2c3cccc4c3c(cn4C)C[C@H]21 | 3 h

system: Rattus norvegicus; test: Inhibitory activity against plasma prolactin level in male Sprague-Dawley rats after peroral administration (5mg/Kg), activity expressed as mean duration for submaximal inhibition; Duration 4-8h; format: functional; conditions: not given

SMILES | Duration
CN1CCO[C@@H]2c3cccc4[nH]cc(c34)C[C@H]21 | 4 h

target: Dopamine receptor; test: In vitro binding affinity towards dopamine receptor was determined in rat striatal membrane using [3H]spiroperidol as the radioligand; format: cell membranes, Striatum; conditions: not given

SMILES | IC50
c1cc2c3c(c[nH]c3c1)C[C@H]1NCCO[C@H]21 | 5000 nM
CN1CCO[C@@H]2c3cccc4[nH]c(Br)c(c34)C[C@H]21 | 1000 nM
CCCN1CCO[C@@H]2c3cccc4c3[C@@H](CN4)C[C@H]21 | 600 nM
CN1CCO[C@@H]2c3cccc4[nH]cc(c34)C[C@H]21 | 800 nM
CCCN1CCO[C@@H]2c3cccc4[nH]cc(c34)C[C@H]21 | 70 nM
CCCN1CCO[C@@H]2c3cccc4[nH]c(Br)c(c34)C[C@H]21 | 250 nM
CN1CCO[C@@H]2c3cccc4c3c(cn4C)C[C@H]21 | 4500 nM

species on record: Rattus norvegicus; test: Minimum effective dose required to induce rotations in rats with unilateral lesion in the nigrostriatal pathway; format: functional; conditions: read-out: MED

SMILES | minimal effective dose
c1cc2c3c(c[nH]c3c1)C[C@H]1NCCO[C@H]21 | 0.5 mg/kg
CN1CCO[C@@H]2c3cccc4[nH]c(Br)c(c34)C[C@H]21 | 1 mg/kg
CCCN1CCO[C@@H]2c3cccc4c3[C@@H](CN4)C[C@H]21 | 0.1 mg/kg
CN1CCO[C@@H]2c3cccc4[nH]cc(c34)C[C@H]21 | 0.2 mg/kg
CCCN1CCO[C@@H]2c3cccc4[nH]cc(c34)C[C@H]21 | 0.01 mg/kg
CCCN1CCO[C@@H]2c3cccc4[nH]c(Br)c(c34)C[C@H]21 | 0.2 mg/kg
CN1CCO[C@@H]2c3cccc4c3c(cn4C)C[C@H]21 | 2 mg/kg
CCCN1C[C@H](CSC)C[C@@H]2c3cccc4[nH]cc(c34)C[C@H]21.CS(=O)(=O)O [PERGOLIDE MESYLATE] | 0.02 mg/kg

species on record: Rattus norvegicus; test: Minimum effective dose required to produce stereotypies in rats; format: functional; conditions: read-out: MED

SMILES | minimal effective dose
c1cc2c3c(c[nH]c3c1)C[C@H]1NCCO[C@H]21 | 5 mg/kg
CN1CCO[C@@H]2c3cccc4[nH]c(Br)c(c34)C[C@H]21 | 20 mg/kg
CCCN1CCO[C@@H]2c3cccc4c3[C@@H](CN4)C[C@H]21 | 0.1 mg/kg
CN1CCO[C@@H]2c3cccc4[nH]cc(c34)C[C@H]21 | 0.5 mg/kg
CCCN1CCO[C@@H]2c3cccc4[nH]cc(c34)C[C@H]21 | 0.1 mg/kg
CCCN1CCO[C@@H]2c3cccc4[nH]c(Br)c(c34)C[C@H]21 | 0.2 mg/kg
CN1CCO[C@@H]2c3cccc4c3c(cn4C)C[C@H]21 | 20 mg/kg
CCCN1C[C@H](CSC)C[C@@H]2c3cccc4[nH]cc(c34)C[C@H]21.CS(=O)(=O)O [PERGOLIDE MESYLATE] | 0.1 mg/kg
